The text below walks through data of ChEMBL document CHEMBL1201862, “PubChem BioAssay data set” (2004).

Molecules are shown by their SMILES.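 Step 1: Grow cells in 96-well plates. Step 2: Expose to compound for 48 hours at 5 concentrations. Step 3: Interpolate endpoints linearly; if unreached, use highest concentration. At the GI50, growth is halved.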 Calls of active or inactive are those of the source. No stated cut-off is given here; in the data, active = GI50 up to about 1.1 µM and inactive = higher.

Test systems include A549; EKVX; HCT-15; HT-29; MDA-MB-435; Malme-3M; NCI-H226; NCI-H460; OVCAR-4; OVCAR-8; PC-3; RPMI-8226; SF-268; SF-295; SF-539; SK-MEL-5; SK-OV-3; SNB-75; T47D; MDA-MB-231.
Experiment in all cases: NCI anticancer screen, dose series, 48 h

For the compound `CCOC(=O)c1c(CN2CCNCC2)nc2ccc(Cl)cc2c1-c1ccccc1`, the GI50 in the experiment with A549 is 5.31 µM (inactive); in the experiment on EKVX, 9.38 µM (inactive); with HCT-15, 3.91 µM; with HT-29, 1.79 µM (inactive); in the experiment on MDA-MB-435, 2.31 µM (inactive); in the experiment with Malme-3M, 1.94 µM (inactive). For the same compound, the GI50 in the experiment with NCI-H226 is 12.6 µM (inactive); in the experiment on NCI-H460 it was 2.48 µM (inactive); in the experiment with OVCAR-4 it was 3.72 µM (inactive); in the experiment with OVCAR-8 it was 4.21 µM (inactive); with PC-3 it was 2.54 µM (inactive); with RPMI-8226, 2.19 µM (inactive). Also, the GI50 is 5.6 µM (inactive) with SF-268; 2.24 µM (inactive) in the experiment on SF-295; 2.56 µM (inactive) in the experiment with SF-539; 1.42 µM (inactive) with SK-MEL-5; 6.93 µM (inactive) with SK-OV-3; 2.37 µM (inactive) in the experiment with SNB-75. In addition, the GI50 with T47D was 4.82 µM (inactive).

As for `O=C(CCC(=O)CC(O)(C(F)(F)F)C(F)(F)F)CC(O)(C(F)(F)F)C(F)(F)F`, the GI50 was 46.8 µM (inactive) in the experiment with A549; 35 µM (inactive) with EKVX; 35 µM with HCT-15; 29.7 µM (inactive) with HT-29; 29.4 µM (inactive) in the experiment on MDA-MB-231; 47.9 µM (inactive) with MDA-MB-435. For the same compound, the GI50 in the experiment with Malme-3M is 42.1 µM (inactive); in the experiment on NCI-H226 it was 18.8 µM (inactive); in the experiment with NCI-H460, > 10 µM (inactive); in the experiment on OVCAR-4, 33 µM (inactive); with OVCAR-8, 42.4 µM (inactive); with RPMI-8226, 26.7 µM (inactive). Moreover, the GI50 in the experiment on SF-268 is 71.6 µM (inactive); with SF-295 it was 32.1 µM (inactive); in the experiment with SF-539 it was 67.6 µM (inactive); with SK-MEL-5 it was 55.7 µM (inactive); in the experiment on SK-OV-3, > 100 µM (inactive); in the experiment with SNB-75, 82.8 µM (inactive). The GI50 with T47D was 29.2 µM (inactive).

As for `Cc1ccc(Cc2n[nH]c(=O)n2Nc2ccccc2)cc1`, the GI50 in the experiment on A549 was > 100 µM (inactive); with EKVX, 81.5 µM (inactive); in the experiment on HCT-15 it was over 100 µM; in the experiment with HT-29, > 100 µM (inactive); in the experiment on MDA-MB-231 it was > 100 µM (inactive); in the experiment with MDA-MB-435, > 100 µM (inactive). Also, the GI50 in the experiment on Malme-3M, in the experiment with NCI-H226, with NCI-H460, in the experiment on OVCAR-4, in the experiment with OVCAR-8 and in the experiment with RPMI-8226 was > 100 µM (inactive) in each case. Moreover, the GI50 is > 100 µM (inactive) in the experiment on SF-268; > 100 µM (inactive) with SF-295; > 100 µM (inactive) in the experiment on SF-539; > 100 µM (inactive) with SK-MEL-5; > 100 µM (inactive) with SK-OV-3; 89.9 µM (inactive) in the experiment with T47D.

As for `CC(=O)NNc1nc(C)c(C(=O)NNC(=O)C(=O)Nc2c(C)cccc2C)s1`, the GI50 with A549 is 42.4 µM (inactive); in the experiment with EKVX, 37 µM (inactive); with HCT-15, 32.3 µM; with HT-29 it was 36.6 µM (inactive); in the experiment on Malme-3M it was 53.1 µM (inactive); in the experiment with NCI-H226, > 100 µM (inactive). Also, the GI50 is 33 µM (inactive) in the experiment on NCI-H460; 41.1 µM (inactive) in the experiment with OVCAR-4; 26.2 µM (inactive) with OVCAR-8; 26.2 µM (inactive) with RPMI-8226; 33.2 µM (inactive) in the experiment with SF-268; 40.6 µM (inactive) with SF-295. The GI50 in the experiment on SF-539 was 60.5 µM (inactive); in the experiment with SK-MEL-5 it was 53 µM (inactive); in the experiment on SK-OV-3, > 100 µM (inactive); in the experiment on SNB-75 it was 96.4 µM (inactive).

As for `Cc1ccc(-c2cn3c(nc4ccccc43)c(/C=C/c3ccco3)n2)cc1`, the GI50 in the experiment on A549 is > 100 µM (inactive); with HCT-15 it was over 100 µM; in the experiment with HT-29 it was > 100 µM (inactive); with MDA-MB-231, > 100 µM (inactive); with MDA-MB-435 it was 29.2 µM (inactive); in the experiment with Malme-3M, 65.6 µM (inactive). Also, the GI50 with NCI-H226 was > 100 µM (inactive); in the experiment with NCI-H460, 58.1 µM (inactive); with OVCAR-4 it was 56.8 µM (inactive); in the experiment on RPMI-8226 it was 21 µM (inactive); in the experiment with SF-268, 59.7 µM (inactive); in the experiment with SF-539 it was > 100 µM (inactive). Also, the GI50 with SK-MEL-5 was 34.8 µM (inactive); in the experiment on SK-OV-3, > 100 µM (inactive); with SNB-75 it was > 100 µM (inactive); with T47D it was 71.4 µM (inactive).

As to `CCOP(=O)(OCC)c1ccc(=O)[nH]c1-c1cccs1`, the GI50 was > 100 µM (inactive) in the experiment on A549; > 100 µM (inactive) with EKVX; over 100 µM in the experiment with HCT-15; > 100 µM (inactive) with HT-29; > 100 µM (inactive) with MDA-MB-435; > 100 µM (inactive) with Malme-3M. The GI50 with NCI-H226, in the experiment on NCI-H460, in the experiment on OVCAR-4, in the experiment with OVCAR-8, with PC-3 and with RPMI-8226 was > 100 µM (inactive) each time. Moreover, the GI50 with SF-268, in the experiment on SF-295, with SF-539, with SK-MEL-5, in the experiment with SK-OV-3 and in the experiment with SNB-75 was > 100 µM (inactive) throughout. Also, the GI50 with T47D is > 100 µM (inactive).

For the compound `c1ccc2c(c1)N=C(c1cccc3ccccc13)CC(c1cccc3ccccc13)S2` (stereo unspecified), the GI50 is 9.12 µM (inactive) with A549; 14 µM (inactive) in the experiment on EKVX; 4.26 µM in the experiment on HCT-15; 3.33 µM (inactive) in the experiment on HT-29; 14.9 µM (inactive) in the experiment with Malme-3M; 9.84 µM (inactive) with NCI-H226. Also, the GI50 in the experiment with NCI-H460 was 3.8 µM (inactive); in the experiment with OVCAR-4 it was 3.68 µM (inactive); in the experiment with OVCAR-8, 2.96 µM (inactive); in the experiment on RPMI-8226, 1.9 µM (inactive); in the experiment with SF-268, 4.42 µM (inactive); with SF-295 it was 9.77 µM (inactive). In addition, the GI50 was 4.92 µM (inactive) with SF-539, 8.95 µM (inactive) with SK-MEL-5, 10.3 µM (inactive) with SK-OV-3 and 5.83 µM (inactive) with SNB-75.

With `CCC(C)OC(=O)C1C2CCC(O2)C1C(=O)O` (stereo unspecified), the GI50 with A549 is > 60.7 µM (inactive); in the experiment on EKVX, > 100 µM (inactive); with HCT-15 it was over 41.1 µM; in the experiment with HT-29, > 43.4 µM (inactive); with Malme-3M it was > 100 µM (inactive); in the experiment with NCI-H226, > 100 µM (inactive). Further, the GI50 in the experiment on NCI-H460 is 24.7 µM (inactive); with OVCAR-4 it was > 100 µM (inactive); in the experiment with OVCAR-8, > 70 µM (inactive); with RPMI-8226, > 48.3 µM (inactive); with SF-268, > 51.2 µM (inactive); in the experiment with SF-295, > 100 µM (inactive). Further, the GI50 was 99.8 µM (inactive) with SF-539, > 100 µM (inactive) in the experiment with SK-MEL-5, > 100 µM (inactive) in the experiment on SK-OV-3 and > 100 µM (inactive) in the experiment with SNB-75.

With `Cc1cc(C#N)c[n+](C)c1`, the GI50 in the experiment with A549 is > 100 µM (inactive); in the experiment with EKVX, > 100 µM (inactive); in the experiment on HCT-15, over 100 µM; with HT-29, > 100 µM (inactive); with MDA-MB-231, > 100 µM (inactive); in the experiment on Malme-3M it was > 100 µM (inactive). The GI50 in the experiment on NCI-H226, in the experiment with NCI-H460, in the experiment with OVCAR-4, in the experiment on OVCAR-8, with PC-3 and with SF-268 was > 100 µM (inactive) throughout. For the same compound, the GI50 in the experiment on SF-295, in the experiment on SF-539, in the experiment with SK-MEL-5, in the experiment with SK-OV-3, in the experiment with SNB-75 and in the experiment on T47D was > 100 µM (inactive) each time.

For `O=C(O)CCC(NC(=O)c1ccc(Nc2nc3ccccc3nc2C(=O)O)cc1)C(=O)O` (stereo unspecified), the GI50 in the experiment on A549, with EKVX, in the experiment with HT-29, in the experiment with MDA-MB-231, in the experiment on MDA-MB-435 and with Malme-3M was > 100 µM (inactive) each time. The GI50 in the experiment on OVCAR-4, in the experiment with OVCAR-8, in the experiment with RPMI-8226, in the experiment with SF-268, with SF-295 and in the experiment on SF-539 was > 100 µM (inactive) in each case. Besides, the GI50 with SK-MEL-5, with SK-OV-3, in the experiment with SNB-75 and in the experiment on T47D was > 100 µM (inactive) in each case.

For `O=C1CSC(=S)N1c1ccco1`, the GI50 in the experiment on A549 was > 100 µM (inactive); in the experiment on EKVX it was > 100 µM (inactive); in the experiment on HCT-15, 22 µM; with HT-29, > 100 µM (inactive); with MDA-MB-231, 31.8 µM (inactive); in the experiment on MDA-MB-435, 24.2 µM (inactive). Besides, the GI50 in the experiment on Malme-3M is > 100 µM (inactive); in the experiment on NCI-H226, > 100 µM (inactive); in the experiment on NCI-H460, > 100 µM (inactive); with OVCAR-4, > 100 µM (inactive); in the experiment with OVCAR-8 it was 56.5 µM (inactive); in the experiment with PC-3, 71.3 µM (inactive). Moreover, the GI50 was 59.3 µM (inactive) in the experiment on RPMI-8226; > 100 µM (inactive) in the experiment on SF-268; > 100 µM (inactive) in the experiment on SF-295; 66.7 µM (inactive) in the experiment with SF-539; 43 µM (inactive) in the experiment with SK-MEL-5; > 100 µM (inactive) in the experiment with SK-OV-3.

As to `C/C(=N\NC(=O)c1ccncc1)c1ccccc1F`, the GI50 with A549 was > 10 µM (inactive); in the experiment on HCT-15, over 10 µM; with Malme-3M, > 10 µM (inactive); in the experiment on NCI-H226 it was > 10 µM (inactive); in the experiment with NCI-H460 it was > 10 µM (inactive); in the experiment with OVCAR-8, > 10 µM (inactive). Moreover, the GI50 with PC-3, with RPMI-8226, in the experiment with SF-268, in the experiment on SF-295, in the experiment with SF-539 and with SK-MEL-5 was > 10 µM (inactive) in each case. The GI50 in the experiment with SK-OV-3, in the experiment on SNB-75 and with T47D was > 10 µM (inactive) throughout.
